Reference: the supplement of paper PMC10307832

Columns and labels:
Experiment in all cases: relative viability (nuclei count vs DMSO), 5 days (fraction); higher = more cells survive
NCI-H522 = test system: NCI-H522
Method in brief: (§1)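 Five library-drug doses in √10 steps were combined with a fixed anchor-drug dose, or a single drug was given alone, by pin tool to lung cancer cell lines in 1536-well plates the day after seeding. Nuclei were stained and counted after 5 days. Relative viability is the nuclei count in treated wells over that in vehicle wells, taken as the median of duplicate plates.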

ChaGo-K-1 = test system: ChaGo-K-1
Method in brief: as §1

SK-MES-1 = test system: SK-MES-1
Method in brief: as §1

NCI-H1651 = test system: NCI-H1651
Method in brief: as §1

NCI-H1623 = test system: NCI-H1623
Method in brief: as §1

## CC1(C)CCC(c2ccc(Cl)cc2)=C(CN2CCN(c3ccc(C(=O)NS(=O)(=O)c4ccc(N[C@H](CCN5CCOCC5)CSc5ccccc5)c(S(=O)(=O)C(F)(F)F)c4)cc3)CC2)C1 [Navitoclax] + CCNC(=O)c1noc(-c2cc(C(C)C)c(O)cc2O)c1-c1ccc(CN2CCOCC2)cc1 [Luminespib] (partner 0.01 µM)
NCI-H522; first compound 0.005 µM
  relative viability: 1.07
NCI-H522; first compound 0.01581 µM
  relative viability: 1.25
NCI-H522; first compound 0.05 µM
  relative viability: 1.04
NCI-H522; first compound 0.1581 µM
  relative viability: 1.19
NCI-H522; first compound 0.5 µM
  relative viability: 1.36
ChaGo-K-1; first compound 0.005 µM
  relative viability: 0.708
ChaGo-K-1; first compound 0.01581 µM
  relative viability: 0.593
ChaGo-K-1; first compound 0.05 µM
  relative viability: 0.306
ChaGo-K-1; first compound 0.1581 µM
  relative viability: 0.578
ChaGo-K-1; first compound 0.5 µM
  relative viability: 0.636
SK-MES-1; first compound 0.005 µM
  relative viability: 0.665
SK-MES-1; first compound 0.01581 µM
  relative viability: 0.985
SK-MES-1; first compound 0.05 µM
  relative viability: 0.959
SK-MES-1; first compound 0.1581 µM
  relative viability: 0.743
SK-MES-1; first compound 0.5 µM
  relative viability: 0.856
NCI-H1651; first compound 0.005 µM
  relative viability: 0.966
NCI-H1651; first compound 0.01581 µM
  relative viability: 0.971
NCI-H1651; first compound 0.05 µM
  relative viability: 0.563
NCI-H1651; first compound 0.1581 µM
  relative viability: 0.809
NCI-H1651; first compound 0.5 µM
  relative viability: 0.712
NCI-H1623; first compound 0.005 µM
  relative viability: 0.478
NCI-H1623; first compound 0.01581 µM
  relative viability: 0.631
NCI-H1623; first compound 0.05 µM
  relative viability: 0.463
NCI-H1623; first compound 0.1581 µM
  relative viability: 0.515
NCI-H1623; first compound 0.5 µM
  relative viability: 0.471

## Oc1nc(-c2ccc(C(F)(F)F)cc2)nc2c1CSCC2 [XAV939] + CCNC(=O)c1noc(-c2cc(C(C)C)c(O)cc2O)c1-c1ccc(CN2CCOCC2)cc1 [Luminespib] (partner 0.01 µM)
NCI-H522; first compound 0.08 µM
  relative viability: 1.45
NCI-H522; first compound 0.253 µM
  relative viability: 1.24
NCI-H522; first compound 0.8 µM
  relative viability: 1.05
NCI-H522; first compound 2.53 µM
  relative viability: 1.09
ChaGo-K-1; first compound 0.08 µM
  relative viability: 0.586
ChaGo-K-1; first compound 0.253 µM
  relative viability: 0.384
ChaGo-K-1; first compound 0.8 µM
  relative viability: 0.508
ChaGo-K-1; first compound 2.53 µM
  relative viability: 0.523
SK-MES-1; first compound 0.08 µM
  relative viability: 0.915
SK-MES-1; first compound 0.253 µM
  relative viability: 0.726
SK-MES-1; first compound 0.8 µM
  relative viability: 0.654
SK-MES-1; first compound 2.53 µM
  relative viability: 0.48
NCI-H1651; first compound 0.08 µM
  relative viability: 0.988
NCI-H1651; first compound 0.253 µM
  relative viability: 0.699
NCI-H1651; first compound 0.8 µM
  relative viability: 0.896
NCI-H1651; first compound 2.53 µM
  relative viability: 0.725
NCI-H1623; first compound 0.08 µM
  relative viability: 0.493
NCI-H1623; first compound 0.253 µM
  relative viability: 0.432
NCI-H1623; first compound 0.8 µM
  relative viability: 0.415
NCI-H1623; first compound 2.53 µM
  relative viability: 0.357

## NC(=O)Nc1cc(-c2cccc(F)c2)sc1C(=O)N[C@H]1CCCNC1 [AZD7762] + Cc1nc(Nc2ncc(C(=O)Nc3c(C)cccc3Cl)s2)cc(N2CCN(CCO)CC2)n1 [Dasatinib] (partner 0.075 µM)
NCI-H522; first compound 0.01 µM
  relative viability: 0.923
NCI-H522; first compound 0.03162 µM
  relative viability: 0.919
NCI-H522; first compound 0.1 µM
  relative viability: 0.76
NCI-H522; first compound 0.3162 µM
  relative viability: 0.933
NCI-H522; first compound 1 µM
  relative viability: 0.946
ChaGo-K-1; first compound 0.01 µM
  relative viability: 0.572
ChaGo-K-1; first compound 0.03162 µM
  relative viability: 0.575
ChaGo-K-1; first compound 0.1 µM
  relative viability: 0.583
ChaGo-K-1; first compound 0.3162 µM
  relative viability: 0.487
ChaGo-K-1; first compound 1 µM
  relative viability: 0.583
SK-MES-1; first compound 0.01 µM
  relative viability: 0.413
SK-MES-1; first compound 0.03162 µM
  relative viability: 0.468
SK-MES-1; first compound 0.1 µM
  relative viability: 0.302
SK-MES-1; first compound 0.3162 µM
  relative viability: 0.131
SK-MES-1; first compound 1 µM
  relative viability: 0.117
NCI-H1651; first compound 0.01 µM
  relative viability: 0.375
NCI-H1651; first compound 0.03162 µM
  relative viability: 0.358
NCI-H1651; first compound 0.1 µM
  relative viability: 0.386
NCI-H1651; first compound 0.3162 µM
  relative viability: 0.22
NCI-H1651; first compound 1 µM
  relative viability: 0.174
NCI-H1623; first compound 0.01 µM
  relative viability: 0.471
NCI-H1623; first compound 0.03162 µM
  relative viability: 0.558
NCI-H1623; first compound 0.1 µM
  relative viability: 0.615
NCI-H1623; first compound 0.3162 µM
  relative viability: 0.482
NCI-H1623; first compound 1 µM
  relative viability: 0.482

## NC(=O)Nc1cc(-c2cccc(F)c2)sc1C(=O)N[C@H]1CCCNC1 [AZD7762] + CCNC(=O)c1noc(-c2cc(C(C)C)c(O)cc2O)c1-c1ccc(CN2CCOCC2)cc1 [Luminespib] (partner 0.01 µM)
NCI-H522; first compound 0.01 µM
  relative viability: 1.14
NCI-H522; first compound 0.03162 µM
  relative viability: 1.23
NCI-H522; first compound 0.1 µM
  relative viability: 1.14
NCI-H522; first compound 0.3162 µM
  relative viability: 1.35
NCI-H522; first compound 1 µM
  relative viability: 1
ChaGo-K-1; first compound 0.01 µM
  relative viability: 0.601
ChaGo-K-1; first compound 0.03162 µM
  relative viability: 0.578
ChaGo-K-1; first compound 0.1 µM
  relative viability: 0.692
ChaGo-K-1; first compound 0.3162 µM
  relative viability: 0.513
ChaGo-K-1; first compound 1 µM
  relative viability: 0.354
SK-MES-1; first compound 0.01 µM
  relative viability: 1.08
SK-MES-1; first compound 0.03162 µM
  relative viability: 0.715
SK-MES-1; first compound 0.1 µM
  relative viability: 0.38
SK-MES-1; first compound 0.3162 µM
  relative viability: 0.19
SK-MES-1; first compound 1 µM
  relative viability: 0.175
NCI-H1651; first compound 0.01 µM
  relative viability: 0.98
NCI-H1651; first compound 0.03162 µM
  relative viability: 0.872
NCI-H1651; first compound 0.1 µM
  relative viability: 0.802
NCI-H1651; first compound 0.3162 µM
  relative viability: 0.487
NCI-H1651; first compound 1 µM
  relative viability: 0.215
NCI-H1623; first compound 0.01 µM
  relative viability: 0.421
NCI-H1623; first compound 0.03162 µM
  relative viability: 0.591
NCI-H1623; first compound 0.1 µM
  relative viability: 0.602
NCI-H1623; first compound 0.3162 µM
  relative viability: 0.604
NCI-H1623; first compound 1 µM
  relative viability: 0.418
